Results from PubChem BioAssay (NCI).
Values joined by “and” are separate entries in the source; they are usually repeats but may differ in a detail not shown here. Equal values may be shown once.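 Values below derive from 48-hour exposures of cells grown in 96-well plates, with endpoints linearly interpolated between the two concentrations bracketing the appropriate inhibition level. GI50 is the concentration that inhibits growth by half. TGI denotes the concentration required for complete inhibition of growth.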

Tests used:
Experiment in all cases: NCI anticancer screen, dose series, 48 h
SF-539 CNS = system: SF-539 CNS
BT-549 breast = system: BT-549 breast
OVCAR-5 ovarian = system: OVCAR-5 ovarian
KM12 colon = system: KM12 colon
OVCAR-4 ovarian = system: OVCAR-4 ovarian
CAKI-1 renal = system: CAKI-1 renal
NCI-H226 lung = system: NCI-H226 lung
HOP-62 NSCLC = system: HOP-62 NSCLC
HCT-116 colon = system: HCT-116 colon
SN12C renal = system: SN12C renal

Compound | GI50 (SF-539 CNS) | TGI (SF-539 CNS) | GI50 (BT-549 breast) | TGI (BT-549 breast) | GI50 (OVCAR-5 ovarian) | TGI (OVCAR-5 ovarian) | GI50 (KM12 colon) | TGI (KM12 colon) | GI50 (OVCAR-4 ovarian) | TGI (OVCAR-4 ovarian) | GI50 (CAKI-1 renal) | TGI (CAKI-1 renal) | GI50 (NCI-H226 lung) | TGI (NCI-H226 lung) | GI50 (HOP-62 NSCLC) | TGI (HOP-62 NSCLC) | GI50 (HCT-116 colon) | TGI (HCT-116 colon) | GI50 (SN12C renal) | TGI (SN12C renal)
C=CCC1(O)c2cccc(NCCO)c2C(=O)c2c(NCCO)cccc21 | > 100 µM | > 100 µM | > 100 µM | > 100 µM | > 100 µM | > 100 µM | > 100 µM | > 100 µM | > 100 µM | > 100 µM | > 100 µM | > 100 µM | > 100 µM | > 100 µM | > 100 µM | > 100 µM | > 100 µM | > 100 µM | > 100 µM | > 100 µM
C#Cc1c(C(N)=O)ncn1C1OC(COP(=O)(OCc2ccc([N+](=O)[O-])o2)N(C)CCCCCl)C(O)C1O (stereo not given) | 19.7 µM | > 100 µM | 37.8 µM | > 100 µM | 16.2 µM | > 100 µM | 42.7 µM | > 100 µM | > 100 µM | > 100 µM | 47.9 µM | > 100 µM | > 100 µM | > 100 µM | 49.3 µM | > 100 µM | 38.2 µM | > 100 µM | 48.3 µM | > 100 µM
O=C(O)c1cc(N=Cc2ccccc2O)cc(C(=O)O)c1 |  | > 100 µM |  | > 100 µM |  | > 100 µM |  | > 100 µM |  | > 100 µM |  | > 100 µM |  | > 100 µM |  | > 100 µM |  | > 100 µM |  | > 100 µM
Cc1cc(Nc2ncnc3ccc(NC4=NC(C)(C)CO4)cc23)ccc1Oc1ccn2ncnc2c1 | 15.6 µM and > 10 µM | 31.2 µM and > 10 µM | 14.1 µM and > 10 µM | 39.5 µM and > 10 µM | 17.1 µM and > 10 µM | 62.9 µM and > 10 µM | 15.6 µM and > 10 µM | 32.1 µM and > 10 µM | 15.1 µM and > 10 µM | 99 µM and > 10 µM | 6.3 µM and > 10 µM | > 61.1 µM | 16.6 µM and > 10 µM | > 90.2 µM | 17.6 µM and > 10 µM | 45.7 µM and > 10 µM | 21.1 µM and > 10 µM | > 80.1 µM | 11 µM and > 10 µM | 65.5 µM and > 10 µM
C=CC(=O)N[C@H]1CCOC[C@H]1Nc1ncc2cc(-c3c(Cl)c(OC)cc(OC)c3Cl)ccc2n1 | 12.5 µM | 29.9 µM | 2.86 µM | 15.8 µM | 45.1 µM | > 100 µM | 27.1 µM | > 100 µM | 6.05 µM | > 100 µM | 12.5 µM | > 100 µM | 10.7 µM | 87.2 µM | 43 µM | > 100 µM | 12.7 µM | 57.2 µM | 16.2 µM | > 100 µM
CO[C@@H]1/C=C(C)/C=C/[C@@H](C)/C=C(\C)C(=O)OC(/C(C)=C/C=C(\C)CNC(=O)[C@H](CO)NC=O)[C@@H](C)/C=C/C=C/[C@H](OC)CC/C=C(C)/C=C/C1 (stereo not given in full) | < 0.005 µM | 0.199 µM | < 0.005 µM | 12.1 µM | 0.178 µM | 12.5 µM | < 0.005 µM | 8 µM | < 0.005 µM | > 50 µM | < 0.005 µM | 0.592 µM | < 0.005 µM | 0.221 µM | < 0.005 µM | < 0.005 µM | < 0.005 µM | 6.11 µM | 0.182 µM | 12.2 µM
